Experimental findings from PMC7143510, “In Vitro Efficiency of Antimicrobial Peptides against Staphylococcal Pathogens Associated with Canine Pyoderma” (Animals : an Open Access Journal from MDPI, 2020) are described below.

Where no end group is shown, it is not given here.

For assay [1], the system named is canine S. aureus strains. As to the kind of experiment: MIC, broth microdilution (CLSI). In kind it is cell-based, Staphylococcus aureus. Here is the method:
(§1) Sixty-six well-characterized staphylococcal strains (60 S. pseudintermedius and 6 S. aureus strains) were selected from the archived previously described collection. This study was conducted based on a retrospective analysis of staphylococcal canine strains isolated and archived at the Laboratory of Department of Medical Microbiology of MUG during routine clinical laboratory procedures. All samples were routinely collected by a veterinarian during the course of infection treatment or control visits, not specifically for this research. The animals were swabbed only after the owner’s consent was given, as we stated in the previous published study.
(§2) Staphylococcal strains were classified as multidrug-resistant (MDR) when they were not susceptible to at least one agent in three different classes of antimicrobials. Sixty examined S. pseudintermedius strains included thirty multidrug-resistant strains (MDRSP) and seven methicillin-resistant strains (MRSP). Six canine S. aureus strains, including three multidrug-resistant strains (MDRSA). S. pseudintermedius strains, including MDRSP (n = 30) and MRSP (7) strains, were resistant to: amoxicillin (61.6%), clindamycin (48.3%), erythromycin (45%), gentamicin (33.3%), chloramphenicol (26.6%), sulfamethoxazole/trimethoprim (25%), tetracycline (20%), cefadroxil (11.6%), oxacillin (11.6%) and ciprofloxacin (10%). Six S. aureus strains, including MDRSA (n = 3), were resistant to: amoxicillin (3/6), erythromycin (3/6), gentamicin (3/6), clindamycin (2/6), chloramphenicol (1/6), sulfamethoxazole/trimethoprim (1/6) and doxycycline (1/6). The following reference strains were used: S. aureus ATCC 6538 (MSSA), S. aureus ATCC 43300 (MRSA), S. intermedius PCM 2405. Both the reference- and clinical strains were stored at −80 °C in Tryptic Soy Broth (TSB, Becton–Dickinson, USA) supplemented with 15% glycerol.
(§3) The antimicrobial susceptibility of each strain to the tested peptides was determined using the minimal inhibitory concentrations (MIC) microdilution method as recommended by the Clinical Laboratory Standards Institute (CLSI) guidelines. Briefly, the staphylococcal strains were grown overnight on a Columbia blood agar (Graso Biotech, Poland) at 37 °C. Isolated colonies were suspended in saline solution and adjusted to a 0.5 McFarland standard. The bacterial suspension was diluted ~ 1:100 to a final concentration of 1 × 10^6 colony forming units (cfu/mL). Two-fold serial dilutions of each tested peptide in Mueller–Hinton Broth 2 (Sigma–Aldrich) were added (100 µL) to polypropylene 96-well plates containing bacterial inoculum (100 µL) and were incubated at 37 °C for 18 h. All clinical and reference strains were tested in duplicate. Bacterial growth was assessed visually after incubation and MIC was recorded as the lowest drug concentration at which an observable growth was inhibited. The MIC50 and MIC90 values were defined as the lowest concentrations of peptides at which 50% and 90% of the strains were inhibited, respectively.
On the technique in general: Broth dilution looks for growth in wells or tubes with falling amounts of substance.

Assay [2] relates to canine S. aureus strains. As to the kind of experiment: MBC, subculture from MIC assay. In kind it is cell-based, Staphylococcus aureus. To be noted: 48 h. Here is the method:
(§4) The loopful (10 µl) of the tested sample was transferred to Triptic Soy Broth (TSB, BD Difco) and incubated at 37 °C for 48 h. MBC was taken as the lowest concentration of each peptide at which staphylococcal colonies were no longer viable on the subculture.

Assay [3] concerns canine S. pseudintermedius strains. The assay can be described thus: MIC, broth microdilution (CLSI). In kind it is cell-based, Staphylococcus pseudintermedius. Here is the method: as §1, §2, §3
The test system is the same in assay [4]. The assay can be described thus: MBC, subculture from MIC assay. Type of assay: cell-based, Staphylococcus pseudintermedius. To be noted: 48 h. The protocol:
as §4

Where [5] appears, read: canine S. aureus (II), 6 strains, Mueller–Hinton Broth 2, 1 × 10^6 cfu/mL, 37 °C, 18 h, visual, duplicate.
Where [6] appears, read: canine S. aureus (II), 6 strains, lowest concentration inhibiting 50% of strains.
The mark [7] stands for this setting: canine S. aureus (II), 6 strains, lowest concentration inhibiting 90% of strains.
Setting [8] is: canine S. aureus (II), 6 strains, 10 µl subcultured in TSB, 37 °C.
The mark [9] stands for this setting: canine S. pseudintermedius (I), 60 strains, Mueller–Hinton Broth 2, 1 × 10^6 cfu/mL, 37 °C, 18 h, visual, duplicate.
Where [10] appears, read: canine S. pseudintermedius (I), 60 strains, lowest concentration inhibiting 50% of strains.
Where [11] appears, read: canine S. pseudintermedius (I), 60 strains, lowest concentration inhibiting 90% of strains.
Where [12] appears, read: canine S. pseudintermedius (I), 60 strains, 10 µl subcultured in TSB, 37 °C.

In the case of FLPLIGRVLSGIL-NH2 [Temporin A], in the assay with canine S. aureus strains [1] (canine strains, 18 h), the MIC50 (in general, an inhibitory concentration at the 50% level, which refers to growth in some studies and to a panel of isolates in others) came to 8 µg/mL; the MIC90 – broadly, an inhibitory concentration at the 90% level, which refers to growth in some studies and to a panel of isolates in others – amounted to 8 µg/mL; the “MIC Median (IQR)” value was 8 (8–8) µg/mL. Also, in the assay with canine S. aureus strains [2] (canine strains), the “MBC Median (IQR)” value is on record as 8 (8–14) µg/mL. Moreover, in assay [3] (18 h), the MIC50 was 8 µg/mL, the MIC90 is listed as 8 µg/mL and the “MIC Median (IQR)” value is listed as 8 (4–8) µg/mL. Further, in assay [4], the “MBC Median (IQR)” value is 8 (8–8) µg/mL.

In the case of GIGKFLKKAKKFGKAFVKILKK-NH2 [Pexiganan], in the assay with canine S. aureus strains [1] (canine strains, 18 h), the MIC50 is given as 4 µg/mL, the MIC90 is 8 µg/mL and the “MIC Median (IQR)” value is listed as 6 (4–8) µg/mL. Moreover, the “MBC Median (IQR)” value in the assay with canine S. aureus strains [2] (canine strains) is recorded as 8 (8–8) µg/mL. In addition, in assay [3] (18 h), the MIC50 came out at 4 µg/mL, the MIC90 is 4 µg/mL and the “MIC Median (IQR)” value is on record as 4 (2–4) µg/mL. Moreover, in assay [4], the “MBC Median (IQR)” value is 4 (2–4) µg/mL.

With GLFDIIKKIAESF-NH2 [Aurein 1.2], the results for the “MIC Median (IQR)” value (with canine S. aureus strains [1] (setting [5]); in assay [3] (setting [9])) were 128 (128–128) µg/mL and 32 (32–32) µg/mL, respectively. Besides, the MIC50 is on record as 128 µg/mL with canine S. aureus strains [1] (setting [6]) and 32 µg/mL in assay [3] (setting [10]). Further, the MIC90 in the assay with canine S. aureus strains [1] (setting [7]) turned out to be 256 µg/mL; in assay [3] (setting [11]) it was 32 µg/mL. Also, the “MBC Median (IQR)” value against canine S. aureus strains [2] (setting [8]) was 128 (128–224) µg/mL; in assay [4] (setting [12]), 64 (64–64) µg/mL.

GLFDVIKKVASVIGGL-NH2 [Citropin 1.1]: in the assay on canine S. aureus strains [1] (canine strains, 18 h), the MIC50 was 8 µg/mL, the MIC90 is 16 µg/mL and the “MIC Median (IQR)” value is on record as 8 (8–14) µg/mL. Moreover, the “MBC Median (IQR)” value in the assay with canine S. aureus strains [2] (canine strains) was 12 (8–16) µg/mL. In assay [3] (18 h), the MIC50 is on record as 4 µg/mL, the MIC90 came to 4 µg/mL and the “MIC Median (IQR)” value is 4 (4–4) µg/mL. In addition, in assay [4], the “MBC Median (IQR)” value is 4 (4–4) µg/mL.

Take GVIDAAKKVVNVLKNLF-NH2 [Uperin 3.6]: the MIC50 was 8 µg/mL against canine S. aureus strains [1] (canine strains, 18 h) and 2 µg/mL in assay [3] (18 h). The MIC90 stood at 16 µg/mL in the assay on canine S. aureus strains [1] (canine strains, 18 h) and 2 µg/mL in assay [3] (18 h). The “MIC Median (IQR)” value against canine S. aureus strains [1] (canine strains, 18 h) is 8 (8–14) µg/mL; in assay [3] (18 h), 2 (2–2) µg/mL. The “MBC Median (IQR)” value is recorded as 16 (16–16) µg/mL in the assay with canine S. aureus strains [2] (canine strains) and 2 (2–4) µg/mL in assay [4].

In the case of KWKLFKKIGAVLKVL-NH2 [CAMEL], the “MIC Median (IQR)” value in the assay on canine S. aureus strains [1] (setting [5]) is 4 (4–4) µg/mL; in assay [3] (setting [9]), 2 (2–4) µg/mL. The figures for the MIC50 (against canine S. aureus strains [1] (setting [6]); in assay [3] (setting [10])) were 4 µg/mL and 2 µg/mL, respectively. Besides, the MIC90 (against canine S. aureus strains [1] (setting [7]); in assay [3] (setting [11])) was 4 µg/mL each time. Also, the “MBC Median (IQR)” value is 4 (4–4) µg/mL in the assay on canine S. aureus strains [2] (setting [8]) and 4 (2–4) µg/mL in assay [4] (setting [12]).
